From US20040038950A1, “Pharmaceutical composition for treating IL-1 related diseases or disorders” (priority 2002, published 2004)

Assays:
TIMP-1 mRNA = assay: RT-PCR of TIMP-1 mRNA in chondrocytes; type: cell-based, human
Description: (§1) Chondrocytes were isolated from the knee joint of patient undergoing a knee replacement due to osteoarthritis. Cartilage was digested with 0.2% protease Type XIV (Sigma) for 1 hour, followed by 3-hour incubation with 0.2% collagenase Type IA (Sigma) at 37° C. Following the incubation, the undigested cartilage fragments were removed using a 70 μm Nylon sieve. Chondrocytes were washed with DPBS and maintained in monolayer culture for 7 days in Dulbecco's modified Eagle's medium (DMEM; Life Technologies Inc.) which contained 10% fetal bovine serum (FBS; Life Technologies), 100 units/ml penicillin-streptomycin (Life Technologies) and 25 μg/ml L-ascorbic acid (Sigma). All experiments were performed with primary or first passage cells. The preparation of chondrocytes in alginate beads was carried out with 4×10^6 cells per 1 ml of alginate. Alginate cultures were maintained for 7 days at 37° C., 5% CO2 and 95% humidity and incubated with various concentrations of DHEA (0, 10, 50 or 100 μM) for a varing period of time. DHEA was purchased from Sigma and used after dissolving either in ethanol or dimethyl sulfoxide (DMSO). After a desired incubation period, cells were harvested by solubilizing the alginate beads in citrate buffer (55 mM sodium citrate, 0.15 M NaCl, pH 7.0) for 10 min at 37° C. and by centrifugation (300 g, 5 min).
(§2) Total RNA from chondrocytes was extracted using RNeasy Mini Kit (QIAGEN). Reverse transcription from 1 μg of total RNA was conducted using First Strand cDNA Synthesis Kit (MBI Fermentas) according to manufacturer's recommendation with random hexamers. The resulting cDNA was then amplified by polymerase chain reaction using AccuPower PCR Premix (Bioneer, Korea) in a final volume of 20 μl using three thermocycler temperatures (30 sec at […], 30 sec at 60° C., and 30 sec at […]). All reactions were determined to be in the linear range of amplification with the cycle number ranging from 14 to 30. The PCR products were analyzed by separation on a 2% agarose gel followed by ethidium bromide staining. Following electrophoresis, photographs were taken and analyzed using a densitometric program (TINA; Raytest Isotopenmeβgerate, Germany). Integrated density values for the genes in question were then normalized to the glyceraldehyde-3-phosphate dehydrogenase (GAPDH) values for a semiquantitative assessment. After normalizing with respect to GAPDH, percentage increase or decrease was determined. Each experiment was repeated at least three times. […]

[1] = system: (IL-1β)-induced MMP-3 mRNA; assay: (IL-1β)-induced MMP-3 mRNA expression in chondrocytes, RT-PCR; type: cell-based, human; details: 100 μM DHEA with IL-1β, 72 hr
Description: Sixteen hours prior to a treatment, the complete culture medium was replaced with a serum-free medium. Chondrocyte alginate bead cultures were then treated with IL-1β ([…], (Calbiochem) and DHEA (0, 10, 50 or 100 μM) for 3 days.
as §2

TIMP-1 = assay: Western blot of TIMP-1 in chondrocyte lysates; type: cell-based, human; details: 0, 10 or 100 μ DHEA, three days
Description: as §1, with “After a desired incubation period, cells were harvested by solubilizing the alginate beads in citrate buffer (55 mM sodium citrate, 0.15 M NaCl, pH 7.0) for 10 min at 37° C. and by centrifugation (300 g, 5 min).” left out
To investigate the effect of DHEA on the protein concentration, Western blot analysis was performed. […] Protein concentration of the supernatant was determined by Bio-Rad protein assay (Bio-Rad, USA) using bovine serum albumin (BSA) as a standard. […]

type II collagen mRNA = assay: Osteoarthritic rabbit model (ACLT), intraarticular injection, RT-PCR of type II collagen; type: in vivo; details: rabbit ACLT knee, intraarticular once a week for 5 weeks
Description: Mature New Zealand White rabbits underwent bilateral anterior cruciate ligament transection (ACLT). ACLT was performed using a medial arthrotomy method. Postoperatively the animals were permitted cage (60 cm×60 cm×40 cm) activity without immobilization. The right knees received via intraartiticular injection DHEA, DHEA-pyruvate or DHEA+HA, 4 weeks after ACLT and once a week for 5 weeks. The left knees received 0.3 ml of intraarticular injection with control solution (carrier solution). After 9 weeks from ACLT, the animas were sacrificed.
Synovium (entire tissue) around the infrapatellar fat pads and cartilage tissue from the femoral condyle and the tibial plateau were harvested. The subsequent experimental procedure was the same as described in Test Example IV.

MMP-3 mRNA = assay: RT-PCR of MMP-3 mRNA in chondrocytes; type: cell-based, human
Description: as §1
Total RNA from chondrocytes was extracted using RNeasy Mini Kit (QIAGEN). Reverse transcription from 1 μg of total RNA was conducted using First Strand cDNA Synthesis Kit (MBI Fermentas) according to manufacturer's recommendation with random hexamers. […] All reactions were determined to be in the linear range of amplification with the cycle number ranging from 14 to 30. The PCR products were analyzed by separation on a 2% agarose gel followed by ethidium bromide staining. Following electrophoresis, photographs were taken and analyzed using a densitometric program (TINA; Raytest Isotopenmeβgerate, Germany). […] After normalizing with respect to GAPDH, percentage increase or decrease was determined. […]

In the case of `C[C@]12CC[C@H](O)CC1=CC[C@@H]1[C@@H]2CC[C@]2(C)C(=O)CC[C@@H]12` [DHEA, dehyroepiandrosterone], the “TIMP-1 mRNA expression, maximum rate of enhancement” value (TIMP-1 mRNA; 50 μM, 72 hours) was 120%, the “TIMP-1 mRNA expression, up-regulation” value (TIMP-1 mRNA; 100 μM, after 72 hr) was 129% and the “TIMP-1 mRNA expression” value (TIMP-1 mRNA; 100 μM, up to 48 hr) was “unaffected”. For the same molecule, the “TIMP-1 mRNA enhancement effect” value (TIMP-1 mRNA; DHEA concentration above 100 μM) was “diminished”, the “(IL-1β)-induced expression of MMP-3 mRNA, inhibition” value [1] was 73% and the “translational level of mature TIMP-1 (Western blot)” value (TIMP-1) was “increased with increasing concentration of DHEA”. The “expression of type II collagen” value (type II collagen mRNA) was “increased”, the “MMP-3 mRNA expression, decreased by” value (MMP-3 mRNA; 100 μM, after 24 hr of culture) was 73% and the “inhibitory activity of DHEA on the MMP-3, increase by” value (MMP-3 mRNA; 100 μM, after 72 hr) was 131%. The “MMP-3 production, inhibition” value (MMP-3 mRNA; 10-100 μM, 72 hours, not dose-dependent) was 82-93%.
